Measured values reported in the supplement of paper PMC11451515.

Key:
Conditions in all cases: 48 h
[1] = tested on: P12-Ichikawa; experiment: AUC of viability dose-response curve (% viability x log10 dose units); higher = less sensitive
Outline: (§1)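 Viability of medium-adapted leukemia cells was measured by CellTiter-Glo One luminescence after 48 h at 37°C with library compounds in DMSO. Doses were 11 threefold steps from 47 μM to 0.79 nM, in 1536-well plates at 500 or 1000 cells/well. Signals were normalised per plate to DMSO and cell-free wells and fitted with a four-parameter log-logistic model on log10 dose. Area under the curve was integrated by trapezoidal rule, with curves exceeding full viability scaled and failed quality-control curves removed.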

[2] = tested on: SEM cells; experiment: as above
Outline: as §1

[3] = tested on: NOMO1; experiment: as above
Outline: as §1

[4] = tested on: SEM cells; experiment: cell viability relative to DMSO control; higher = less cytotoxic
Outline: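 Viability values are per-plate percentages of DMSO wells, with background from cell-free wells. Library compounds in DMSO were pin-dosed, in an 11-point threefold series from 47 μM to 0.79 nM, onto NOMO1 or SEM (500 cells/well) or P12-Ichikawa (1000 cells/well) leukemia cells in 1536-well plates (5 μl). Those cells had been adapted for at least four passages in each medium, and CellTiter-Glo One luminescence was read after 48 h at 37°C.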

COC(=O)C1=C(C)NC(C)=C(C(=O)OCCN2CCN(C(c3ccccc3)c3ccccc3)CC2)C1c1cccc([N+](=O)[O-])c1.Cl.Cl (stereo not given)
AUC of viability dose-response curve
Conditions | [1] | [2] | [3]
HPLM + 10% dialyzed FBS | 447 | 463 | 472
RPMI 5 mM glucose + 10% FBS | 464 | 421 | 464
RPMI 5 mM glucose + 10% dialyzed FBS | 442 | 453 | 445

CN1C(=O)C(Cc2c[nH]c3ccccc23)NC1=S (stereo not given)
AUC of viability dose-response curve
Conditions | [1] | [2] | [3]
HPLM + 10% dialyzed FBS | 458 | 437 | 467
RPMI 5 mM glucose + 10% FBS | 450 | 405 | 448
RPMI 5 mM glucose + 10% dialyzed FBS | 461 | 422 | 451

CN1[C@@H]2CCC[C@H]1C[C@@H](NC(=O)c1nn(C)c3ccccc13)C2.Cl
[4], HPLM + 10% dialyzed FBS
Conditions | cell viability [%]
0.000781 µM | 112
0.00234 µM | 110
0.00702 µM | 126
0.0211 µM | 115
0.0632 µM | 126
0.19 µM | 123
0.569 µM | 124
1.71 µM | 125
5.12 µM | 133
15.4 µM | 119
46.1 µM | 115

AUC of viability dose-response curve
Conditions | [1] | [2] | [3]
HPLM + 10% dialyzed FBS | 463 | 468 | 468
RPMI 5 mM glucose + 10% FBS | 444 | 434 | 466
RPMI 5 mM glucose + 10% dialyzed FBS | 465 | 457 | 465

NC(=O)c1cccc(-c2cccc(OC(=O)NC3CCCCC3)c2)c1
cell viability [%], [4]
Conditions | HPLM + 10% dialyzed FBS | RPMI 5 mM glucose + 10% FBS
0.000781 µM | 110 | 116
0.00234 µM | 125 | 119
0.00702 µM | 128 | 120
0.0211 µM | 133 | 120
0.0632 µM | 124 | 119
0.19 µM | 38.4 | 33
0.569 µM | 128 | 110
1.71 µM | 96.5 | 78.1
5.12 µM | 94.7 | 62.2
15.4 µM | 104 | 78
46.1 µM | 96.9 | 71.5

AUC of viability dose-response curve
Conditions | [1] | [2] | [3]
HPLM + 10% dialyzed FBS | 413 | 421 | 461
RPMI 5 mM glucose + 10% FBS | 402 | 357 | 473
RPMI 5 mM glucose + 10% dialyzed FBS | 380 | 376 | 472

CC(C)NCC(O)c1ccc(O)c(O)c1 (stereo not given)
AUC of viability dose-response curve
Conditions | [1] | [2] | [3]
HPLM + 10% dialyzed FBS | 389 | 455 | 376
RPMI 5 mM glucose + 10% FBS | 394 | 427 | 389
RPMI 5 mM glucose + 10% dialyzed FBS | 407 | 457 | 391

COc1ccc2c(c[n+](C)c3c4cc5c(cc4ccc23)OCO5)c1OC
AUC of viability dose-response curve
Conditions | [1] | [2] | [3]
HPLM + 10% dialyzed FBS | 423 | 407 | 438
RPMI 5 mM glucose + 10% FBS | 406 | 397 | 447
RPMI 5 mM glucose + 10% dialyzed FBS | 404 | 402 | 449

Cc1cccc(C)c1NC(=O)CN1CCCC1=O
[4], HPLM + 10% dialyzed FBS
Conditions | cell viability [%]
0.000781 µM | 115
0.00234 µM | 121
0.00702 µM | 125
0.0211 µM | 123
0.0632 µM | 125
0.19 µM | 122
0.569 µM | 126
1.71 µM | 129
5.12 µM | 122
15.4 µM | 116
46.1 µM | 103

AUC of viability dose-response curve
Conditions | [1] | [2] | [3]
HPLM + 10% dialyzed FBS | 444 | 470 | 463
RPMI 5 mM glucose + 10% FBS | 434 | 461 | 458
RPMI 5 mM glucose + 10% dialyzed FBS | 458 | 431 | 470

O=C([O-])Cc1ccccc1Nc1c(Cl)cccc1Cl
cell viability [%], [4]
Conditions | HPLM + 10% dialyzed FBS | RPMI 5 mM glucose + 10% FBS
0.000781 µM | 109 | 126
0.00234 µM | 121 | 113
0.00702 µM | 110 | 113
0.0211 µM | 125 | 109
0.0632 µM | 126 | 123
0.19 µM | 129 | 112
0.569 µM | 117 | 111
1.71 µM | 122 | 111
5.12 µM | 75.7 | 69.1
15.4 µM | 112 | 108
46.1 µM | 65.9 | 49

AUC of viability dose-response curve
Conditions | [1] | [2] | [3]
HPLM + 10% dialyzed FBS | 447 | 442 | 454
RPMI 5 mM glucose + 10% FBS | 445 | 429 | 455
RPMI 5 mM glucose + 10% dialyzed FBS | 447 | 430 | 458

NC/1=N/C(=O)N/C=C1F
[4], HPLM + 10% dialyzed FBS
Conditions | cell viability [%]
0.000781 µM | 118
0.00234 µM | 145
0.00702 µM | 123
0.0211 µM | 134
0.0632 µM | 118
0.19 µM | 125
0.569 µM | 125
1.71 µM | 136
5.12 µM | 130
15.4 µM | 120
46.1 µM | 103

AUC of viability dose-response curve
Conditions | [1] | [2] | [3]
HPLM + 10% dialyzed FBS | 455 | 468 | 417
RPMI 5 mM glucose + 10% FBS | 438 | 464 | 432
RPMI 5 mM glucose + 10% dialyzed FBS | 432 | 429 | 405

Fc1ccc(CNc2ncnc3ccc(F)cc23)cc1
AUC of viability dose-response curve
Conditions | HPLM + 10% dialyzed FBS | RPMI 5 mM glucose + 10% FBS | RPMI 5 mM glucose + 10% dialyzed FBS
[1] | 453 | 429 | 429
[3] | 445 | 452 | 419

Cn1c2ccccc2c2c3c(c4c5ccccc5n(CCC#N)c4c21)CNC3=O
cell viability [%], [4]
Conditions | HPLM + 10% dialyzed FBS | RPMI 5 mM glucose + 10% dialyzed FBS
0.000781 µM | 109 | 123
0.00234 µM | 118 | 103
0.00702 µM | 142 | 159
0.0211 µM | 119 | 130
0.0632 µM | 111 | 124
0.19 µM | 98.1 | 107
0.569 µM | 55 | 52.7
1.71 µM | 41 | 39.4
5.12 µM | 25.7 | 19
15.4 µM | 18.8 | 18.5
46.1 µM | 17.6 | 11.2

AUC of viability dose-response curve
Conditions | [1] | [2] | [3]
HPLM + 10% dialyzed FBS | 393 | 305 | 362
RPMI 5 mM glucose + 10% FBS | 363 | 308 | 376
RPMI 5 mM glucose + 10% dialyzed FBS | 367 | 300 | 367
